Measurements as given in patent US8492395B2, “7-substituted quinazolinone compounds and compositions comprising the same” (Celgene Corporation, priority 2007, dated 2013).

What was measured:
IL-2 = IL-2 production by T cells (anti-CD3 stimulated, ELISA); format: cell-based; conditions: T-cell, one collective range stated for the tested compounds, read-out: EC50 values for stimulating the production of IL-2
Method: 5.48.2 […] and MIP-3α Production by T Cells
PBMC are depleted of adherent monocytes by placing 1×10^8 PBMC in 10 ml complete medium (RPMI 1640 supplemented with 10% heat-inactivated fetal bovine serum, 2 mM L-glutamine, 100 U/ml penicillin, and 100 μg/ml streptomycin) per 10 cm tissue culture dish, in 37° C., 5% CO2 incubator for 30-60 minutes. The dish is rinsed with medium to remove all non-adherent PBMC. T cells are purified by negative selection using the following antibody (Pharmingen) and Dynabead (Dynal) mixture for every 1×10^8 non-adherent PBMC: 0.3 ml Sheep anti-mouse IgG beads, 15 μl anti-CD16, 15 μl anti-CD33, 15 μl anti-CD56, 0.23 ml anti-CD19 beads, 0.23 ml anti-HLA class II beads, and 56 μl anti-CD14 beads. The cells and bead/antibody mixture is rotated end-over-end for 30-60 minutes at 4° C. Purified T cells are removed from beads using a Dynal magnet. Typical yield is about 50% T cells, 87-95% CD3^+ by flow cytometry.
Tissue culture 96-well flat-bottom plates are coated with anti-CD3 antibody OKT3 at 5 μg/ml in PBS, 100 μl per well, incubated at 37° C. for 3-6 hours, then washed four times with complete medium 100 μl/well just before T cells are added. Compounds are diluted to 20 times of final in a round bottom tissue culture 96-well plate. Final concentrations are about 10 μM to about 0.00064 μM. A 10 mM stock of compounds provided herein is diluted 1:50 in complete for the first 20× dilution of 200 μM in 2% DMSO and serially diluted 1:5 into 2% DMSO. Compound is added at 10 μl per 200 μl culture, to give a final DMSO concentration of 0.1%. Cultures are incubated at 37° C., 5% CO2 for 2-3 days, and supernatants analyzed for IL-2 and MIP-3α by ELISA (R&D Systems). IL-2 and MIP-3 cc levels are normalized to the amount produced in the presence of an amount of a compound provided herein, and EC50s calculated using non-linear regression, sigmoidal dose-response, constraining the top to 100% and bottom to 0%, allowing variable slope (GraphPad Prism v3.02).
Abilities of certain compounds for stimulating the production of IL-2 were determined using procedures substantially similar to those described in Section 5.48.2, above.

Namalwa AG4 cells = assay: Cell proliferation assay (3H-thymidine incorporation); format: cell-based; conditions: one collective range stated for the tested compounds, read-out: IC50 values for inhibiting proliferation of Namalwa AG4 cells
Method: 5.48.3 Cell Proliferation Assay
Cell lines Namalwa, MUTZ-5, and UT-7 are obtained from the Deutsche Sammlung von Mikroorganismen und Zellkulturen GmbH (Braunschweig, Germany). The cell line KG-1 is obtained from the American Type Culture Collection (Manassas, Va., USA). Cell proliferation as indicated by ^3H-thymidine incorporation is measured in all cell lines as follows.
Cells are plated in 96-well plates at 6000 cells per well in media. The cells are pre-treated with compounds at about 100, 10, 1, 0.1, 0.01, 0.001, 0.0001 and 0 μM in a final concentration of about 0.25% DMSO in triplicate at 37° C. in a humidified incubator at 5% CO2 for 72 hours. One microcurie of 3H-thymidine (Amersham) is then added to each well, and cells are incubated again at 37° C. in a humidified incubator at 5% CO2 for 6 hours. The cells are harvested onto UniFilter GF/C filter plates (Perkin Elmer) using a cell harvester (Tomtec), and the plates are allowed to dry overnight. Microscint 20 (Packard) (25 μl/well) is added, and plates are analyzed in TopCount NXT (Packard). Each well is counted for one minute. Percent inhibition of cell proliferation is calculated by averaging all triplicates and normalizing to the DMSO control (0% inhibition). Each compound is tested in each cell line in three separate experiments. Final IC50s are calculated using non-linear regression, sigmoidal dose-response, constraining the top to 100% and bottom to 0%, allowing variable slope. (GraphPad Prism v3.02).
Abilities of certain compounds for inhibiting proliferation of Namalwa AG4 cells were determined using procedures substantially similar to those described in Section 5.48.3, above.

Structure (SMILES) | EC50 (IL-2) | IC50 (Namalwa AG4 cells) | melting point
Cc1nc2ccc(CNC(=O)Nc3ccc(OC(F)(F)F)cc3)cc2c(=O)n1C1CCC(=O)NC1=O (centres unmarked) [1-[3-(2,6-dioxo-piperidin-3-yl)-2-methyl-4-oxo-3,4-dihydro-quinazolin-6-ylmethyl]-3-(4-trifluoromethoxy-phenyl)-urea] | 100 to 3500 nM | 10 to 5500 nM | 201 to 203 °C
CCCCCCNC(=O)NCc1ccc2nc(C)n(C3CCC(=O)NC3=O)c(=O)c2c1 (centres unmarked) [1-[3-(2,6-dioxo-piperidin-3-yl)-2-methyl-4-oxo-3,4-dihydro-quinazolin-6-ylmethyl]-3-hexyl-urea] | 100 to 3500 nM | 10 to 5500 nM | 220 to 222 °C
Cc1nc2ccc(N)cc2c(=O)n1C1CCC(=O)NC1=O (centres unmarked) [3-(6-amino-2-methyl-4-oxo-4H-quinazolin-3-yl)-piperidine-2,6-dione] | 100 to 3500 nM | 10 to 5500 nM | 
Cc1nc2ccc(O)cc2c(=O)n1C1CCC(=O)NC1=O (centres unmarked) [3-(6-hydroxy-2-methyl-4-oxo-4H-quinazolin-3-yl)-piperidine-2,6-dione] | 100 to 3500 nM |  | 315 to 317 °C
Cc1nc2cc(N)ccc2c(=O)n1C1CCC(=O)NC1=O (centres unmarked) [3-(7-amino-2-methyl-4-oxo-4H-quinazolin-3-yl)-piperidine-2,6-dione] | 100 to 3500 nM | 10 to 5500 nM | 
Cc1nc2cc(Br)ccc2c(=O)n1C1CCC(=O)NC1=O (centres unmarked) [3-(7-bromo-2-methyl-4-oxo-4H-quinazolin-3-yl)-piperidine-2,6-dione] | 100 to 3500 nM | 10 to 5500 nM | 
Cc1nc2cc(Cl)ccc2c(=O)n1C1CCC(=O)NC1=O (centres unmarked) [3-(7-chloro-2-methyl-4-oxo-4H-quinazolin-3-yl)-piperidine-2,6-dione] | 100 to 3500 nM | 10 to 5500 nM | 291 to 293 °C
Cc1nc2cc(F)ccc2c(=O)n1C1CCC(=O)NC1=O (centres unmarked) [3-(7-fluoro-2-methyl-4-oxo-4H-quinazolin-3-yl)-piperidine-2,6-dione] | 100 to 3500 nM | 10 to 5500 nM | 243 to 245 °C
